Reference: patent US20260103686A1, “MICROBIAL STRAIN, PROTEIN, AND METHOD FOR PRODUCING GALLIC ACID USING MICROBIAL STRAIN OR PROTEIN” (UNIVERSITY OF TSUKUBA, priority 2022, published 2026)
Where two headings read alike, the source gives them in different places.

Experiments:
[1] = target: Hylemonella gracilis-derived PobA (HgPobA, SEQ ID NO: 20) variant HgPobA-TY, T302A/Y393F (gene SEQ ID NO: 37) (Hylemonella gracilis, UniProt F3KT36, T302A/Y393F); test: Reaction kinetic analysis of HgPobA-TY
Description: The cell-free extracts were subjected to a HisTrap HP column (GE healthcare) which was equilibrated with an equilibration buffer (20 mM Tris-HCl buffer (pH 7.9), 20 mM imidazole), and then fractions eluted with an eluent (20 mM Tris-HCl buffer (pH 7.9), 500 mM imidazole) were collected.
The protein concentrations of the purified enzyme liquids were measured using Bio-Rad Protein Assay Dye Reagent Concentrate (Bio-Rad, USA), and the purified enzyme liquids were diluted to 1 of mg/mL with a buffer.

[2] = test system: Hydrogenophaga sp.-derived PobA (HyPobA), protocatechuic acid 5-hydroxylase, wild type, SEQ ID NO: 21; test: Reaction kinetic analysis of HyPobA; format: biochemical; conditions: 200 µM NADPH, 10 µM FAD, pH 7.9, 25° C., 340 nm
Description: By the same procedures, a target […] plasmid was obtained based on the gene sequence information of Hydrogenophaga sp.-derived PobA (HyPobA) (SEQ ID NO: 4). The base sequences of primers 3 and 4 used are shown below.

[3] = target: Pseudomonas aeruginosa-derived PobA (PaPobA), p-hydroxybenzoate hydroxylase, wild type, SEQ ID NO: 28 (Pseudomonas aeruginosa, UniProt P20586); test: Reaction kinetic analysis of PaPobA (comparison); conditions: PCA substrate (2 mM), 200 µM NADPH, 10 µM FAD, pH 7.9, 25° C., 340 nm
Description: A polynucleotide encoding Pseudomonas aeruginosa-derived PobA was artificially synthesized based on the gene sequence information of Pseudomonas aeruginosa-derived PobA (PaPobA) (SEQ ID NO: 14).

[4] = test system: Polaromonas sp.-derived PobA (PoPobA), protocatechuic acid 5-hydroxylase, wild type, SEQ ID NO: 22; test: Reaction kinetic analysis of PoPobA; format: biochemical; conditions: 200 µM NADPH, 10 µM FAD, pH 7.9, 25° C., 340 nm
Description: By the same procedures, a target pRSF-PoPobA plasmid was obtained based on the gene sequence information of Polaromonas sp.-derived PobA (PoPobA) (SEQ ID NO: 7). The base sequences of primers 5 and 6 used are shown below.

[5] = PCA substrate, read-out: Km^app (PCA)
[6] = read-out: Km^app (pHBA), pHBA substrate

Hylemonella gracilis-derived PobA (HgPobA, SEQ ID NO: 20) variant HgPobA-TY, T302A/Y393F (gene SEQ ID NO: 37), sequence (F3KT36 1-402 T302A/Y393F): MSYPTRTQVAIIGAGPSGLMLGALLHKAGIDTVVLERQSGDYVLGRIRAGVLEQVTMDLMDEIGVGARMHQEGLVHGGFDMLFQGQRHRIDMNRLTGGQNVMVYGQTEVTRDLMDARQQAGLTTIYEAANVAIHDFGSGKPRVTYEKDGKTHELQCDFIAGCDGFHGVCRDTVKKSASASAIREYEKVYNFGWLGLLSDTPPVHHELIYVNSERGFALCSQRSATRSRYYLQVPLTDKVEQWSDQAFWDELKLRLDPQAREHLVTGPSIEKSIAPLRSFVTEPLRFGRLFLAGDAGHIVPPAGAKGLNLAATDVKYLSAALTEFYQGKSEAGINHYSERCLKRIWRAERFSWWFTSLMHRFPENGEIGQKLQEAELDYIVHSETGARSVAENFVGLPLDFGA
Pseudomonas aeruginosa-derived PobA (PaPobA), p-hydroxybenzoate hydroxylase, wild type, SEQ ID NO: 28, sequence (P20586 whole entry): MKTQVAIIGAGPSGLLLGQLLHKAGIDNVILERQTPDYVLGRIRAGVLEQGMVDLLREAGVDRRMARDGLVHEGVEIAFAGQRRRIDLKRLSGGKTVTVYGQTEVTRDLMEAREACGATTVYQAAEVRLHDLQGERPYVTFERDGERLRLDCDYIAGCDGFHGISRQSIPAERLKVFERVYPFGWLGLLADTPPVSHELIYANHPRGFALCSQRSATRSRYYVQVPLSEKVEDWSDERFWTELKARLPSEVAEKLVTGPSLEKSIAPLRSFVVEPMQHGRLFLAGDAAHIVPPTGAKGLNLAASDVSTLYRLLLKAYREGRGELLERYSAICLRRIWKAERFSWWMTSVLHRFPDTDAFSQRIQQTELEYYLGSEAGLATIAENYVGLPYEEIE

Km [2, 6] [µM]	Km [4, 6] [µM]	SMILES	kcat value for PCA relative to PaPobA ([1]; HgPobA-TY versus PaPobA) [times]	kcat^app (PCA) ([1]; PCA substrate (2 mM), 200 µM NADPH, 10 µM FAD, pH 7.9, 25° C., 340 nm) [s⁻¹]	kcat^app (PCA) ([2]; PCA substrate (2 mM)) [s⁻¹]	Km [2, 5] [µM]	kcat^app (PCA) [3] [s⁻¹]	kcat^app (PCA) ([4]; PCA substrate (2 mM)) [s⁻¹]	Km [4, 5] [µM]
		O=C(O)c1ccc(O)c(O)c1 [PCA, protocatechuic acid]	3.6	1.8	6.6	570	0.50	2.7	920
56	340	O=C(O)c1ccc(O)cc1 [pHBA, p-hydroxybenzoic acid]							
